Where a name gives a salt, the structure may show the parent alone.
Target: T1, aldose reductase (Bos taurus, UniProt P16116)
T1 construct: partially purified aldose reductase enzyme obtained from calf lens; from tissue; host or cells: calf lens
Assay: Inhibition of aldose reductase enzyme activity (procedure of U.S. Pat. No. 3,821,383, based on Hayman et al.)
Assay type: biochemical
Conditions: partially purified aldose reductase from calf lens; for inhibition at 100 µM: 10^-4 M; for inhibition at 10 µM: 10^-5 M
Description: The activity of the compounds of this invention as aldose reductase inhibitors and as agents for the treatment of diabetic cataracts may be determined by standard pharmacological tests. Such tests include, for example, measuring their ability to inhibit the enzyme activity of isolated aldose reductase, following the general procedure described in U.S. Pat. No. 3,821,383 and based on the procedure of Hayman et al., J. Biol. Chem. 240, 877 (1965). Based on the activity of the compounds of this invention in this test, it is expected that the compounds will also show activity as aldose reductase inhibitors when tested at suitable concentrations in other standard pharmaceutical tests, for example those measuring their ability to reduce or inhibit sorbitol accumulation in the sciatic nerve of acutely streptozotocinized (i.e. diabetic) rats; measuring their ability to reverse already-elevated sorbitol level in the sciatic nerve and lens of chronic streptozotocin-induced diabetic rats; measuring their ability to prevent or inhibit galacticol formation in the lens of acutely galatosemic rats; and measuring their ability to delay cataract formation and reduce the severity of lens opacities in chronic galactosemic rats.
The compounds produced in Examples 4, 7, 8, 9 and 10 were tested for their ability to reduce or inhibit aldose reductase enzyme activity, following the procedure described in U.S. Pat. No. 3,821,383 and based on the procedure of Hayman et. al., Journal of Biological Chemistry, 240, 877 (1965). The substrate employed was partially purified aldose reductase enzyme obtained from calf lens. The results obtained with each compound at a concentration of 10^-4 M and 10^-5 M are expressed as percent inhibition of enzyme activity.

Structure (SMILES): Cc1c(CC(=O)O)c2ccccc2c(=O)n1OCc1ccc(Cl)c(Cl)c1 [Example 4, 2-(3,4-Dichlorobenzyloxy)-1,2-dihydro-3-methyl-1-oxo-4-isoquinoline Acetic Acid]
- inhibition at 100 µM: 90%
- inhibition at 10 µM: 77%

Structure (SMILES): Cc1c(CC(=O)O)c2ccccc2c(=O)n1Cc1ccc(Cl)c(Cl)c1 [Example 7, 2-(3,4-Dichlorobenzyl)-1,2-dihydro-3-methyl-1-oxo-4-isoquinoline Acetic Acid]
- inhibition at 100 µM: 27%

Structure (SMILES): Cc1nc(OCc2ccc(Cl)c(Cl)c2)c2ccccc2c1CC(=O)O [Example 8, 1-(3,4-Dichlorobenzyloxy)-3-methyl-4-isoquinoline Acetic Acid]
- inhibition at 100 µM: 83%
- inhibition at 10 µM: 95%

Structure (SMILES): Cc1nc(Oc2ccc(Cl)cc2)c2ccccc2c1CC(=O)O [Example 9, 1-(4-Chlorophenoxy)-3-methyl-4-isoquinoline Acetic Acid]
- inhibition at 100 µM: 95%
- inhibition at 10 µM: 91%

Structure (SMILES): Cc1nc(N(C)Cc2ccc(Cl)cc2)c2ccccc2c1CC(=O)O [Example 10, 1-(N-4-Chlorobenzyl-N-methyl-amino)-3-methyl-4-isoquinoline Acetic Acid Hydrochloride]
- inhibition at 100 µM: 99%
- inhibition at 10 µM: 97%
